pIC50, pKi: −log10 of the molar value. Where a name gives a salt, the structure may show the parent alone.
Key:
[1] = molecular target: T1, human histamine H4 receptor (Homo sapiens, UniProt Q9H3N8); test: Evaluation of H4 Receptor Function ([35S]GTPγS binding); type: biochemical; settings: [35S]GTPγS binding, CHO-K1 membrane, 0.1 μM histamine; read-out: Evaluation of H4 Receptor Function (IC50 value, antagonistic effect)
T1 construct: purchased PerkinElmer Inc; host or cells: CHO-K1
Protocol: The antagonistic effect was evaluated by the method described below. Membrane preparation from recombinant CHO-K1 cell expressing the human histamine H4 receptor (PerkinElmer Inc.), 10 μM GDP, 0.1 μM histamine, and the compounds dissolved in DMSO were reacted at 30° C. for 20 minutes in a buffering solution containing 20 mM HEPES, pH 7.4, 100 mM NaCl, 10 mM MgCl2, 1 mM DTT, and 1 mM EDTA on an assay plate. Thereafter, SPA beads (Amersham plc) were added, followed by incubation for 60 minutes, and further 0.3 nM [^35S]GTPγS (PerkinElmer Inc.) was added, followed by incubation for 30 minutes.

[2] = molecular target: T1, human histamine H4 receptor; test: Evaluation of Human H4 Receptor Affinity ([3H]histamine binding); settings: inhibition constant Ki, CHO-K1 membrane preparation, read-out: Evaluation of H4 Receptor Affinity
In short: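 Membranes from CHO-K1 cells expressing human H4 receptor incubated with 8.2 nM [3H]histamine and compound for 90 min at 25 °C in 50 mM Tris-HCl pH 7.4, 1.25 mM EDTA, then filtered and counted. Nonspecific binding defined with 1.0 μM histamine; Ki from IC50 by Cheng-Prusoff using Kd 5.7 nM.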

[3] = molecular target: T2, human histamine H1 receptor (Homo sapiens, UniProt P35367); test: Evaluation of Human H1 Receptor Function (GeneBLAzer H1-NFAT-bla HEK 293T cells); type: cell-based; settings: histamine 30 nM, read-out: Evaluation of H1 Receptor Function (IC50 value, antagonistic effect)
T2 sequence (P35367 whole entry): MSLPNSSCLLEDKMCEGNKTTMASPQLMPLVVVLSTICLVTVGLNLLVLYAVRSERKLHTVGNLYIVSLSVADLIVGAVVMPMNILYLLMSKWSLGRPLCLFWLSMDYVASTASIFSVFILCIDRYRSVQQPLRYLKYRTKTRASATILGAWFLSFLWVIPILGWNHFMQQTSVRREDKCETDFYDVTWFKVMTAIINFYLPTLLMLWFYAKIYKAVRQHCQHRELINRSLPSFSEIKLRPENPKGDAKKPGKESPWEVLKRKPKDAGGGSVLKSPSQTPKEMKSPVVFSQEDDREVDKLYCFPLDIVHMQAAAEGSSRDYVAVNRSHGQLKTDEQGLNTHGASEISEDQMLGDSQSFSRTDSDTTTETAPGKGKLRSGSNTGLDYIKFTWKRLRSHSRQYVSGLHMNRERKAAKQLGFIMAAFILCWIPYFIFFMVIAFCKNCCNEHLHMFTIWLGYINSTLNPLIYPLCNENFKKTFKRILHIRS
Protocol: Test Example 3: Evaluation of Human H1 Receptor Function
The antagonistic effect was evaluated by the method described below. GeneBLAzer® H1-NFAT-bla HEK 293T-cells (Invitrogen Corporation, recombinant cells expressing the human histamine H1 receptor) were incubated at 37° C. for 30 minutes in the presence of the test compounds dissolved in DMSO in a high glucose Dulbecco's Modified Eagle Medium (GlutaMAX, containing 10% fetal bovine serum, 100 μM nonessential amino acids, 25 mM HEPES, 100 U/mL penicillin, and 100 μg/mL streptomycin), and histamine was added such that the final concentration became 30 nM, followed by further incubation for 4.5 hours. Then, a mixture of LiveBLAzer™ FRET-B/G Loading Kit (Invitrogen Corporation) and Solution D (Invitrogen Corporation) was added, followed by leaving to stand at room temperature for 2 hours under shaded conditions. Thereafter, the fluorescence intensity was measured under two conditions of 400 nm/460 nm and 400 nm/535 nm (excitation light/fluorescence) by using a multilabel counter (EnVision: PerkinElmer Inc.). The 50% inhibitory concentration (IC50 value) was calculated in accordance with (measured value−blank measured value at 400 nm/460 nm)/(measured value−blank measured value at 400 nm/535 nm) of each test sample.

[4] = molecular target: T2, human histamine H1 receptor; test: Evaluation of Human H1 Receptor Affinity ([3H]pyrilamine binding); design: purchased PerkinElmer Inc; host or cells: CHO-K1; settings: inhibition constant Ki, CHO-K1 membrane preparation
In short: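 Ki values are Cheng-Prusoff conversions of IC50 (Kd 1.1 nM) from radioligand displacement of 1.2 nM [3H]pyrilamine, with 1.0 μM pyrilamine defining nonspecific binding.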

| Structure (SMILES) | pIC50 [1] | pKi [2] | pIC50 [3] | pKi [4] |
| --- | --- | --- | --- | --- |
| [2H]C([2H])(C(=O)O)[C@H]1C[C@@H](OCCN2CCN(c3nc(N)nc4c3CCc3cc(OCc5ccc(OC(F)(F)F)cc5)ccc3-4)CC2)C1 [Example 184, cis-2-(3-(2-(4-(2-amino-8-((4-(trifluoromethoxy)benzyl)oxy)-5,6-dihydrobenzo[h]quinazolin-4-yl)piperazin-1-yl)ethoxy)cyclobutyl)acetic-c-2,2-d2 acid] | > 6.70 | > 7.00 | > 6.70 | > 7.00 |
| Nc1nc2c(c(N3CCN(CCO[C@H]4C[C@@H](C(=O)O)C4)CC3)n1)CCc1cc(OCc3ccc(SC(F)(F)F)cc3)ccc1-2 [Example 211] |  | > 7.00 |  | > 7.00 |
| CC(C)(C(=O)O)c1ccc(OCCN2CCN(c3nc(N)nc4c3CCc3cc(OCc5ccc(Cl)cc5)ccc3-4)CC2)cc1 [Example 162, 2-(4-(2-(4-(2-amino-8-((4-chlorobenzyl)oxy)-5,6-dihydrobenzo[h]quinazolin-4-yl)piperazin-1-yl)ethoxy)phenyl)-2-methylpropanoic acid] |  | 6.30 to 7.00 |  | 6.30 to 7.00 |
| Nc1nc2c(c(N3CCN(CCOCCOCCN4C(=O)c5ccccc5C4=O)CC3)n1)CCc1cc(OCc3ccc(Cl)cc3)ccc1-2 [Example 112, 2-(2-(2-(2-(4-(2-amino-8-((4-chlorobenzyl)oxy)-5,6-dihydrobenzo[h]quinazolin-4-yl)piperazin-1-yl)ethoxy)ethoxy)ethyl)isoindoline-1,3-dione] |  | 6.30 to 7.00 |  | > 7.00 |
| CN1CCN(c2nc(N)nc3c2CCc2cc(NS(=O)(=O)c4cccc(Cl)c4)ccc2-3)CC1 [Example 43, N-(2-amino-4-(4-methylpiperazin-1-yl)-5,6-dihydrobenzo[h]quinazolin-8-yl)-3-chlorobenzenesulfonamide] |  | 6.30 to 7.00 |  | 6.30 to 7.00 |
| COc1ccc(S(=O)(=O)Nc2ccc3c(c2)CCc2c-3nc(N)nc2N2CCN(C)CC2)cc1 [Example 53, N-(2-amino-4-(4-methylpiperazin-1-yl)-5,6-dihydrobenzo[h]quinazolin-8-yl)-4-methoxybenzenesulfonamide] |  | 6.30 to 7.00 |  | > 7.00 |
| N#CC1(C(=O)O)CCC(COCCN2CCN(c3nc(N)nc4c3CCc3cc(OCc5ccc(OC(F)(F)F)cc5)ccc3-4)CC2)CC1 (stereo not drawn) [Example 175, 4-((2-(4-(2-amino-8-((4-(trifluoromethoxy)benzyl)oxy)-5,6-dihydrobenzo[h]quinazolin-4-yl)piperazin-1-yl)ethoxy)methyl)-1-cyanocyclohexane-1-carboxylic acid] |  | > 7.00 |  | > 7.00 |
| CC(C)(C(=O)O)[C@H]1C[C@H](OCCN2CCN(c3nc(N)nc4c3CCc3cc(OCc5ccc(OC(F)(F)F)cc5)ccc3-4)CC2)C1 [Example 174, trans-2-(3-(2-(4-(2-amino-8-((4-(trifluoromethoxy)benzyl)oxy)-5,6-dihydrobenzo[h]quinazolin-4-yl)piperazin-1-yl)ethoxy)cyclobutyl)-2-methylpropanoic acid] |  | > 7.00 |  | > 7.00 |
| COC(=O)c1ccc(OCCN2CCN(c3nc(N)nc4c3CCc3cc(OCc5ccc(Cl)cc5)ccc3-4)CC2)cc1 [19(a), methyl 4-(2-(4-(2-amino-8-((4-chlorobenzyl)oxy)-5,6-dihydrobenzo[h]quinazolin-4-yl)piperazin-1-yl)ethoxy)benzoate] |  | 6.30 to 7.00 |  | 6.30 to 7.00 |
| Nc1nc2c(c(N3CCN(CCOc4csc(C(=O)O)c4)CC3)n1)CCc1cc(OCc3ccc(OC(F)(F)F)cc3)ccc1-2 [Example 183, 4-(2-(4-(2-amino-8-((4-(trifluoromethoxy)benzyl)oxy)-5,6-dihydrobenzo[h]quinazolin-4-yl)piperazin-1-yl)ethoxy)thiophene-2-carboxylic acid] |  | > 7.00 |  | > 7.00 |

The next lines start with the values.

| pIC50 [1] | pKi [2] | pIC50 [3] | pKi [4] | Structure (SMILES) |
| --- | --- | --- | --- | --- |
| 5.70 to 6.70 | 6.30 to 7.00 | > 6.70 | > 7.00 | CC(C)(OCCOCCN1CCN(c2nc(N)nc3c2CCc2cc(OCc4ccc(Cl)cc4)ccc2-3)CC1)C(=O)O [Example 122, 2-(2-(2-(4-(2-amino-8-((4-chlorobenzyl)oxy)-5,6-dihydrobenzo[h]quinazolin-4-yl)piperazin-1-yl)ethoxy)ethoxy)-2-methylpropanoic acid] |
| > 6.70 | > 7.00 | > 6.70 | > 7.00 | Nc1nc2c(c(N3CCN(CCOC[C@H]4CC[C@H](C(=O)O)CC4)CC3)n1)CCc1cc(OCc3ccc(OC(F)(F)F)cc3)ccc1-2 [Example 29, trans-4-((2-(4-(2-amino-8-((4-(trifluoromethoxy)benzyl)oxy)-5,6-dihydrobenzo[h]quinazolin-4-yl)piperazin-1-yl)ethoxy)methyl)cyclohexane-1-carboxylic acid] |
| 5.70 to 6.70 | > 7.00 | > 6.70 | > 7.00 | Nc1nc2c(c(N3CCN(CCO[C@H]4C[C@@H](C(=O)O)C4)CC3)n1)CCc1cc(OCc3ccc(Cl)cc3)ccc1-2 [Example 14, cis-3-(2-(4-(2-amino-8-((4-chlorobenzyl)oxy)-5,6-dihydrobenzo[h]quinazolin-4-yl)piperazin-1-yl)ethoxy)cyclobutane-1-carboxylic acid] |
| > 6.70 | > 7.00 | 5.70 to 6.70 | 6.30 to 7.00 | Nc1nc2c(c(N3CCN(CCOc4ccc(C(=O)O)cc4)CC3)n1)CCc1cc(OCc3ccc(Cl)cc3)ccc1-2 [19(b), 4-(2-(4-(2-amino-8-((4-chlorobenzyl)oxy)-5,6-dihydrobenzo[h]quinazolin-4-yl)piperazin-1-yl)ethoxy)benzoic acid] |
|  | > 7.00 |  | > 7.00 | CNC(=O)COCCOCCN1CCN(c2nc(N)nc3c2CCc2cc(OCc4ccc(Cl)cc4)ccc2-3)CC1 [Example 188, 2-(2-(2-(4-(2-amino-8-((4-chlorobenzyl)oxy)-5,6-dihydrobenzo[h]quinazolin-4-yl)piperazin-1-yl)ethoxy)ethoxy)-N-methylacetamide dihydrochloride] |
|  | > 7.00 |  | > 7.00 | N#CC1(C(=O)O)CCC(COCCN2CCN(c3nc(N)nc4c3CCc3cc(OCc5ccc(Cl)cc5)ccc3-4)CC2)CC1 (stereo not drawn) [160(b), trans- or cis-4-((2-(4-(2-amino-8-((4-chlorobenzyl)oxy)-5,6-dihydrobenzo[h]quinazolin-4-yl)piperazin-1-yl)ethoxy)methyl)-1-cyanocyclohexane-1-carboxylic acid] |
|  | > 7.00 |  | > 7.00 | Nc1nc2c(c(N3CCN(CCOCC4CC(C(=O)O)C4)CC3)n1)CCc1cc(OCc3ccc(Cl)cc3)ccc1-2 (stereo not drawn) [Example 170, trans- or cis-3-((2-(4-(2-amino-8-((4-chlorobenzyl)oxy)-5,6-dihydrobenzo[h]quinazolin-4-yl)piperazin-1-yl)ethoxy)methyl)cyclobutane-1-carboxylic acid] |
|  | 6.30 to 7.00 |  | > 7.00 | Nc1nc2c(c(N3CCN(CCOCC4(O)CCC(C(=O)O)CC4)CC3)n1)CCc1cc(OCc3ccc(Cl)cc3)ccc1-2 (stereo not drawn) [166(b), cis- or trans-4-((2-(4-(2-amino-8-((4-chlorobenzyl)oxy)-5,6-dihydrobenzo[h]quinazolin-4-yl)piperazin-1-yl)ethoxy)methyl)-4-hydroxycyclohexane-1-carboxylic acid] |
|  | > 7.00 |  | > 7.00 | Nc1nc2c(c(N3CCN(CCOCCO)CC3)n1)CCc1cc(OCc3ccc(Cl)cc3)ccc1-2 [Example 8, 2-(2-(4-(2-amino-8-((4-chlorobenzyl)oxy)-5,6-dihydrobenzo[h]quinazolin-4-yl)piperazin-1-yl)ethoxy)ethan-1-ol] |
